Experiments:
[1] = target: T1, PI3Kβ (Homo sapiens, UniProt P42338); test: In vitro PI3 kinase enzyme assay (PI3K ATP loss), beta; format: biochemical; details: average if run more than once
T1 construct: Full length p110 subunits of PI3K α, β and δ, N-terminally labeled with polyHis tag; polyHis (N); made in house; host or cells: Sf9 insect cells (baculovirus)

[2] = tested on: phosphorylation of Akt at Ser473; test: Cell-based phospho-Akt Ser473 assay (HCT116 cell); details: HCT 116 human colon carcinoma cells, IGF-1 stimulated; average
Description: Cell-Based Phospho-Akt Ser473 Assay (HCT116 Cell)
This assay determines the ability of a compound to inhibit the phosphorylation of […] in Akt using a MSD based sandwich immunoassay (Meso Scale Detection, Meso Scale Discovery (MSD), Gaithersburg, Md.). HCT 116 human colon carcinoma cell lines can be grown in McCoy's 5A growth medium (GIBCO, Carlsbad, Calif.) containing 10% FBS (GIBCO, Carlsbad, Calif.) and X1 Penicillin-streptomycin-glutamine (GIBCO, Carlsbad, Calif.). Prior to the assay, cells can be detached from the culture flask with trypsin, and re-suspended in complete media to give a final concentration of 1.6×10^5 cells per mL. Aliquots (100 μl) of the HCT116 cell suspension can be seeded into each well of a 96 well tissue culture plate to give a final density of 16,000 cells per well. Cells can then be incubated overnight at 37° C.
The following day the cells can be treated with serially diluted test compounds and incubated for 2 hours at 37° C. The culture media on the HCT 116 cells can be replaced with 189 μL McCoys media, supplemented with 0.1% BSA (ICN Biomedicals, Inc., Costa Mesa, Calif.). Compounds can be prepared as either 10 mM or 0.5 mM stock solutions in DMSO, and serially diluted 3 fold in a 10-point dose-response curve to give final concentrations that are 200-fold greater than the desired final test concentration. Aliquots (1 μL) of serially-diluted compounds can be transferred to 96 well tissue culture plates containing the HCT 116 cells. […] As a maximum response control, wells can contain 0.5% DMSO in place of compound. The plates can be mixed at 700 rpm for 2 min to ensure even distribution of the test compound and incubated for 2 hours at 37° C. Cells can then be stimulated with insulin-like growth factor 1 (Sigma, St Louis, Mo.) at final concentration of 100 ng/ml for 15 minutes at 37° C. The media can then be removed and the cells treated with 80 μL cell-lysis buffer (MSD) containing a cocktail of protease and phosphatase inhibitors for one hour at 4° C.
25 μL Cell lysate can then be transferred to pre-blocked MSD assay plates pre-coated with a capture antibody specific for Akt, and the plates can be incubated for 2 hours at room temperature. The cell lysates can then be removed and plates can then be washed four times with 200 μl per well of Tris wash buffer (500 mM Tris, PH 7.5, 1.5 M NaCl, 0.2% Tween-20). Subsequently cells can be incubated for 1 hour at room temperature with a 25 μL solution containing the detection antibody, anti-phospho Akt (Ser 473) labeled with an electrochemiluminescent compound (Meso Scale Discovery SULPHO-TAG™ label, MSD, Gaithersburg, Md.). The detection antibody can be removed and plates can then be washed four times with 200 μL per well of Tris wash buffer. An aliquot of 150 μL of diluted MSD read buffer can then be applied to each well, and the electrochemiluminescent signal can be measured using a MSD SECTOR™ plate reader (Meso Scale Discovery, Gaithersburg, Md.). This instrument measures the intensity of emitted light to determine a quantitative measure of phosphorylated Akt in each well. The dose-response data obtained with each compound can be analyzed and the IC50 inhibition of Akt phosphorylation at Ser473 can be calculated.
Activity data for the compounds tested in the PI3K cell based Akt assay is provided in Table 1 under the column heading HCT116 Cell.

[3] = target: T2, mTOR (Homo sapiens, UniProt P42345); test: In vitro mTOR assay (Lanthascreen); format: biochemical; details: average if run more than once
T2 construct: purchased Invitrogen (Carlsbad, Calif.)
T2 sequence (P42345 1360-2549 limits assumed): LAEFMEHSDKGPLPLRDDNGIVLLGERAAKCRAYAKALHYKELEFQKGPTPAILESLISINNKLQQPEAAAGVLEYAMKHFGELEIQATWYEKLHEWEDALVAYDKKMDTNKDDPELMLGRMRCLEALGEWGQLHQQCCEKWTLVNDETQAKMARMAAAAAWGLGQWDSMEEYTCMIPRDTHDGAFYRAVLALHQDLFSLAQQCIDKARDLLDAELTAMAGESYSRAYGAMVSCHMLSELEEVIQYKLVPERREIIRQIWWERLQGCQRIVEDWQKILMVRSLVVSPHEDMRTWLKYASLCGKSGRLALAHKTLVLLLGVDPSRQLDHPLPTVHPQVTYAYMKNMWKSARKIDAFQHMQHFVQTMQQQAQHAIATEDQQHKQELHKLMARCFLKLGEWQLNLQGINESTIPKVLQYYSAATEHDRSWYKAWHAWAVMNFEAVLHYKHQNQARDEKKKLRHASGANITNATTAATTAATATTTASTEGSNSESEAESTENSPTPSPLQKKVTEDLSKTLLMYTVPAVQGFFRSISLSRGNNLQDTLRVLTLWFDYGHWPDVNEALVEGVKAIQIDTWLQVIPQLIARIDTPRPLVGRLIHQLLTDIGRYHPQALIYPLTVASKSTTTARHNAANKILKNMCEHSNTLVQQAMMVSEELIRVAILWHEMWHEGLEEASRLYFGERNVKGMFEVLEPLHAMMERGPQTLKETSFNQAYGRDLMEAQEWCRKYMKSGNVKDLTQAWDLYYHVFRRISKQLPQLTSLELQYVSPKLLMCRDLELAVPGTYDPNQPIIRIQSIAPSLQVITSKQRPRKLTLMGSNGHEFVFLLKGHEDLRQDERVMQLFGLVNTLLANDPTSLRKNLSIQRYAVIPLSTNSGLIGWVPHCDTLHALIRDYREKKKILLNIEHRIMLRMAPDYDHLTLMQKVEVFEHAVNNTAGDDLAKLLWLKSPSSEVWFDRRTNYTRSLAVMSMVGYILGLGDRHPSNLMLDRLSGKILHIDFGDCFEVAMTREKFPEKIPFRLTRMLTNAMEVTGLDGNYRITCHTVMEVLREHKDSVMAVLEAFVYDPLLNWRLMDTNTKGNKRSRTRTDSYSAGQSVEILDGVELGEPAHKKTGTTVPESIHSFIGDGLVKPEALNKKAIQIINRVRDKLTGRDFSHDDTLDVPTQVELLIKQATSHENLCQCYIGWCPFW
Description: The Invitrogen (Carlsbad, Calif.) mammalian target of rapamycin (mTOR) Lanthascreen assay can be used to quantitate mTOR kinase activity in an in vitro setting. Active mTOR phosphorylates eukaryotic translation initiation factor 4E binding protein 1 (4E-BP1) on residue threonine 46. This phosphorylation event can be detected with a phospho-specific terbium (Tb) labeled Ab, in turn bringing the Tb label in close proximity to the GFP tagged 4E-BP1 and allowing for time-resolved fluorescence resonance energy transfer (TR-FRET), which correlates 4E-BP1 phosphorylation levels with mTOR kinase activity.
Enzyme reaction buffer can be prepared in deionized water containing 50 mM HEPES (pH 7.5), 0.01% Polysorbate 20, 1 mM EGTA, and 10 mM MnCl2.
Dilutions of the compound to be tested can be prepared in 96-well polypropylene plates (Fisher Scientific, Waltham, Mass.). One row represents a 10-point dose of compound diluted 1:3 in enzyme reaction buffer and 20% dimethyl sulfoxide (DMSO). The top concentration for all compounds is 36 μM. Wells 6 and 12 can serve as the no compound (DMSO only) and high compound controls.
An mTOR substrate solution can prepared in enzyme reaction buffer containing 1600 nM green fluorescent protein tagged eukaryotic translation initiation factor 4E binding protein 1 (GFP-4E-BP1) (Invitrogen, Carlsbad, Calif.) and 28 uM adenosine triphosphate (ATP) (Calbiochem, Gibbstown, N.J.).
mTOR enzyme (Invitrogen, Carlsbad, Calif.) can be diluted in enzyme reaction buffer to a working concentration of 100 ng/mL.
The enzyme assay can be run in 384 well low volume assay plates (Corning, Corning, N.Y.). 2.5 uL of substrate solution containing GFP-4E-BP1 and ATP can be added to appropriate wells in the assay plate followed by 2.5 μL of compound dilutions. 5 μL of appropriately diluted mTOR enzyme can be added and the reaction allowed to proceed for 1 hour at room temperature. Final reagent concentrations in the enzyme assay are 50 ng/mL mTOR, 400 nM GFP-4E-BP1, and 7 μM ATP.
The enzyme assay can be terminated upon the addition of 10 μL of 20 mM EDTA and 4 nM Tb-labeled anti-phospho-4E-BP1 [T46] antibody (Invitrogen, Carlsbad, Calif.). The assay plate can then be incubated at room temperature for 1 hour and results read on a Tecan Safire II plate reader (Tecan, Männedorf, Switzerland).

T1 sequence (P42338 whole entry): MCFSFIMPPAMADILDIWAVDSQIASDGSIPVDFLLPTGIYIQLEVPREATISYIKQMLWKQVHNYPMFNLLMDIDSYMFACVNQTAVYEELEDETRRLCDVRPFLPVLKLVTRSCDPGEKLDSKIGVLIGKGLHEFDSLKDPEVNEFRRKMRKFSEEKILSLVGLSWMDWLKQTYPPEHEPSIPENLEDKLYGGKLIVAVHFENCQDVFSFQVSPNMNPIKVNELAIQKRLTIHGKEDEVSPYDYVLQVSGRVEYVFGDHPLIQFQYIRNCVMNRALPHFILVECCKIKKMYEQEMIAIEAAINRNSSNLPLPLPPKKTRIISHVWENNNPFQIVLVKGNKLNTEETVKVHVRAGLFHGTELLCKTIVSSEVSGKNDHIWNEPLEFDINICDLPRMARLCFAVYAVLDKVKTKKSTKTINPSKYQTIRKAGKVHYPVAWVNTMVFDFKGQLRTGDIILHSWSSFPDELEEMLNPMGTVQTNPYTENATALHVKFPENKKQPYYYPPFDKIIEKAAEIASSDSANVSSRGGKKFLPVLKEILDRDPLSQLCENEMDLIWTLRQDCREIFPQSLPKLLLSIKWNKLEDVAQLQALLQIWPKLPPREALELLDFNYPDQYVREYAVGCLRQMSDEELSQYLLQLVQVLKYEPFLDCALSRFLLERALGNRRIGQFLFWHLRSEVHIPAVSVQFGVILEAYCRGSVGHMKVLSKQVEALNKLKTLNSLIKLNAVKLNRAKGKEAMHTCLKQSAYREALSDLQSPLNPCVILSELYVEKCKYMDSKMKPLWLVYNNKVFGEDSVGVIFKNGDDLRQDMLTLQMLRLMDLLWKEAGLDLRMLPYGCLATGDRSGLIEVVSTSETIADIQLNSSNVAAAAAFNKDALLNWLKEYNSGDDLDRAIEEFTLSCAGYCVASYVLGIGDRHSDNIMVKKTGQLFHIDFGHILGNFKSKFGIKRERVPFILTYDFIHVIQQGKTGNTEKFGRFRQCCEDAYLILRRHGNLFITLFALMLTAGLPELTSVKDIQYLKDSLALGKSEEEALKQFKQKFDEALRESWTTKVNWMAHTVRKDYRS
T1 sequence (P27986 whole entry partner): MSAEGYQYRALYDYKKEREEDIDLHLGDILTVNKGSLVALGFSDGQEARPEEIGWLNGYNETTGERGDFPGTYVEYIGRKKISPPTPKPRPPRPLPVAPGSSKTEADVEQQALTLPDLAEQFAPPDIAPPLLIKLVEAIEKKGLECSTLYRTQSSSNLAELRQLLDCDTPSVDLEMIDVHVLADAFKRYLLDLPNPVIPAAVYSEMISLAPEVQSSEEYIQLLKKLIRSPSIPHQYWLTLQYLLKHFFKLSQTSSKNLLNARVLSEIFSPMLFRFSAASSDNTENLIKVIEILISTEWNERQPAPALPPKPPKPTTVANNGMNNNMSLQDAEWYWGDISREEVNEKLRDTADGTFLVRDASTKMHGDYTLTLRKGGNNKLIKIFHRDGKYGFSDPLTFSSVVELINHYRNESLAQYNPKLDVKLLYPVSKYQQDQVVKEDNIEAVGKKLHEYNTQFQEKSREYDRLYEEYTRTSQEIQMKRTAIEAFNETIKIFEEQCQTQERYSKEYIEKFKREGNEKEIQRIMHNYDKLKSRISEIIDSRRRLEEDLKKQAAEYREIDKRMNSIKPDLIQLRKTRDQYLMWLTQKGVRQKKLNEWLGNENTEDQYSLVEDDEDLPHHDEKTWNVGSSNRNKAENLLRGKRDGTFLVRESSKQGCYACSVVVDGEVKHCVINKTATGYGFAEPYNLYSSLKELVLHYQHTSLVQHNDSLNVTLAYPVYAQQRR

Compound | IC50 [1] [µM] | IC50 [2] [µM] | IC50 [3] [µM]
O=S(=O)(Nc1cc(-c2ccc3ncc(NCCc4ccccc4)nc3c2)cnc1Cl)c1ccc(F)cc1 [Example 64, N-(2-chloro-5-(3-((2-phenylethyl)amino)-6-quinoxalinyl)-3-pyridinyl)-4-fluorobenzenesulfonamide] | 0.0597 | 0.188 | 
COc1nc(-c2cnc(Cl)c(NS(=O)(=O)c3ccc(F)cc3)c2)cc2cccnc12 [Example 76, N-(2-Chloro-5-(8-methoxy-1,7-naphthyridin-6-yl)pyridin-3-yl)-4-fluorobenzenesulfonamide] |  | 0.806 | 
COCCN(C)c1cnc2ccc(-c3cnc(Cl)c(NS(=O)(=O)c4ccc(F)cc4)c3)cc2n1 [Example 55, N-(2-chloro-5-(3-((2-methoxyethyl)(methyl)amino)-6-quinoxalinyl)-3-pyridinyl)-4-fluorobenzenesulfonamide] | 0.0207 | 0.064 | 
CC(C)N1CCN(c2ccnc3ccc(-c4cnc(Cl)c(NS(=O)(=O)c5ccc(F)cc5)c4)cc23)CC1 [Example 25, N-(2-chloro-5-(4-(4-(1-methylethyl)-1-piperazinyl)-6-quinolinyl)-3-pyridinyl)-4-fluorobenzenesulfonamide] | 0.0119 | 0.0189 | 
COc1ncccc1-c1ccnc2ccc(-c3cnc(Cl)c(NS(=O)(=O)c4ccc(F)cc4)c3)cc12 [Example 35, N-(2-chloro-5-(4-(2-methoxy-3-pyridinyl)-6-quinolinyl)-3-pyridinyl)-4-fluorobenzenesulfonamide] | 0.0212 | 0.0548 | 
COCCNc1ccnc2ccc(-c3cnc(Cl)c(NS(=O)(=O)c4ccc(F)cc4)c3)cc12 [Example 98, N-(2-chloro-5-(4-((2-methoxyethyl)amino)-6-quinolinyl)-3-pyridinyl)-4-fluorobenzenesulfonamide] |  |  | 1.16
COCCNc1cnc2ccc(-c3cnc(Cl)c(NS(=O)(=O)c4ccc(F)cc4)c3)cc2n1 [Example 73, N-(2-chloro-5-(3-((2-methoxyethyl)amino)-6-quinoxalinyl)-3-pyridinyl)-4-fluorobenzenesulfonamide] | 0.0334 | 0.0595 | 
O=S(=O)(Nc1cc(-c2ccc3ncc(N4C[C@H]5CC[C@H](CC5)C4)nc3c2)cnc1Cl)c1ccc(F)cc1 [Example 62, N-(5-(3-(3-azabicyclo[3.2.2]non-3-yl)-6-quinoxalinyl)-2-chloro-3-pyridinyl)-4-fluorobenzenesulfonamide] | 0.343 | 0.263 | 
O=S(=O)(Nc1cc(-c2ccc3nccnc3c2)cnc1Cl)c1ccc(F)cc1 [Example 6, N-(2-chloro-5-(6-quinoxalinyl)-3-pyridinyl)-4-fluorobenzenesulfonamide] | 0.0254 | 1.59 | 
CN(Cc1ccccc1)c1cnc2ccc(-c3cnc(Cl)c(NS(=O)(=O)c4ccc(F)cc4)c3)cc2n1 [Example 65, N-(5-(3-(benzyl(methyl)amino)-6-quinoxalinyl)-2-chloro-3-pyridinyl)-4-fluorobenzenesulfonamide] | 0.0303 | 0.279 | 
O=S(=O)(Nc1cc(-c2ccc3ncc(NCCN4CCCCC4)nc3c2)cnc1Cl)c1ccc(F)cc1 [Example 61, N-(2-chloro-5-(3-((2-(1-piperidinyl)ethyl)amino)-6-quinoxalinyl)-3-pyridinyl)-4-fluorobenzenesulfonamide] | 0.0155 | 0.0515 | 
O=S(=O)(Nc1cc(-c2ccc3ncc(NCC4CCCCC4)nc3c2)cnc1Cl)c1ccc(F)cc1 [Example 70, N-(2-chloro-5-(3-((cyclohexylmethyl)amino)-6-quinoxalinyl)-3-pyridinyl)-4-fluorobenzenesulfonamide] | 0.0532 | 0.151 | 
O=S(=O)(Nc1cc(-c2ccc3nccc(Cl)c3c2)cnc1Cl)c1ccc(F)cc1 [Example 2, N-(2-chloro-5-(4-chloro-6-quinolinyl)-3-pyridinyl)-4-fluorobenzenesulfonamide] | 0.0093 | 0.109 | 
COC1CCN(c2cnc3ccc(-c4cnc(Cl)c(NS(=O)(=O)c5ccc(F)cc5)c4)cc3n2)CC1 [Example 69, N-(2-chloro-5-(3-(4-methoxy-1-piperidinyl)-6-quinoxalinyl)-3-pyridinyl)-4-fluorobenzenesulfonamide] | 0.0344 | 0.0526 | 
O=S(=O)(Nc1cc(-c2ccc3nccc(N4CCOCC4)c3c2)cnc1Cl)c1ccc(F)cc1 [Example 1, N-(2-chloro-5-(4-(4-morpholinyl)-6-quinolinyl)-3-pyridinyl)-4-fluorobenzenesulfonamide] |  | 0.0174 | 
CN(C)c1ccnc2ccc(-c3cnc(Cl)c(NS(=O)(=O)c4ccc(F)cc4)c3)cc12 [Example 97, N-(2-chloro-5-(4-(dimethylamino)-6-quinolinyl)-3-pyridinyl)-4-fluorobenzenesulfonamide] |  |  | 0.111
COCCOc1ccnc2ccc(-c3cnc(Cl)c(NS(=O)(=O)c4ccc(F)cc4)c3)cc12 [Example 31, N-(2-chloro-5-(4-(2-methoxyethoxy)-6-quinolinyl)-3-pyridinyl)-4-fluorobenzenesulfonamide] | 0.0144 | 0.0252 | 
O=S(=O)(Nc1cc(-c2ccc3nccc(N4CCCCC4)c3c2)cnc1Cl)c1ccc(F)cc1 [Example 24, N-(2-chloro-5-(4-(1-piperidinyl)-6-quinolinyl)-3-pyridinyl)-4-fluorobenzenesulfonamid] | 0.0184 | 0.159 | 
O=S(=O)(Nc1cc(-c2ccc3ncc(N4CCOCC4)nc3c2)cnc1Cl)c1ccc(F)cc1 [Example 20, N-(2-chloro-5-(3-(4-morpholinyl)-6-quinoxalinyl)-3-pyridinyl)-4-fluorobenzenesulfonamide] |  | 0.0062 | 
O=S(=O)(Nc1cc(-c2ccc3ncccc3n2)cnc1Cl)c1ccc(F)cc1 [Example 41, N-(2-chloro-5-(1,5-naphthyridin-2-yl)-3-pyridinyl)-4-fluorobenzenesulfonamide] | 0.0597 | 0.629 | 

Reference: patent US8415376B2, “Inhibitors of PI3 kinase” (Amgen Inc., priority 2008, dated 2013)
